Our source for the EC50 values is patent publication US20200016136A1 (VIIV HEALTHCARE UK (NO. 5) LIMITED, priority 2017, published 2020).

For orientation: EC50 means the concentration at which the effect is half-maximal.

The assay has as its system NL-RLuc virus (recombinant NL4-3 HIV with Renilla Luciferase gene). The assay is described as follows: Inhibition of HIV replication (NL-RLuc virus in MT-2 cells, luciferase readout). Format: cell-based, Human immunodeficiency virus (HIV). To be noted: MT2, 120 h. In short, it runs like this:
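MT-2 cells infected with NL4-3-derived virus carrying Renilla luciferase in place of part of nef, grown 5 days with serial compound dilutions in RPMI 1640/10% FBS. Virus growth read as luciferase expression. EC50 from median effect equation, at least 2 experiments.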
In the case of `Cc1nc(C)c([C@H](OC(C)(C)C)C(=O)O)c(N2CCC(C)(C)CC2)c1-c1ccc2c(c1)CCN(c1ncnc(N3C[C@@H](C)O[C@@H](C)C3)n1)C2` [Example 68, (S)-2-(tert-Butoxy)-2-(5-(2-(4-((2R,6S)-2,6-dimethylmorpholino)-1,3,5-triazin-2-yl)-1,2,3,4-tetrahydroisoquinolin-6-yl)-4-(4,4-dimethylpiperidin-1-yl)-2,6-dimethylpyridin-3-yl)acetic Acid], the EC50 was 1 nM.

Turning to `Cc1nc(C)c([C@H](OC(C)(C)C)C(=O)O)c(N2CCC(C)(C)CC2)c1-c1ccc2c(c1)CCN(c1ccnc(N3C4CCCC3COC4)n1)C2` [Example 36, (2S)-2-(tert-Butoxy)-2-[4-(4,4-dimethylpiperidin-1-yl)-2,6-dimethyl-5-[2-(2-{3-oxa-9-azabicyclo[3.3.1]nonan-9-yl}pyrimidin-4-yl)-1,2,3,4-tetrahydroisoquinolin-6-yl]pyridin-3-yl]acetic Acid], the EC50 is 3 nM. Then `CC1(C)CCN(c2c(-c3ccc4c(c3)CCN(c3ncnc5c3oc3ccccc35)C4)c(CNCCS(C)(=O)=O)nc(Cl)c2[C@H](OC(C)(C)C)C(=O)O)CC1` [Example 110, (S)-2-(5-(2-(Benzofuro[3,2-d]pyrimidin-4-yl)-1,2,3,4-tetrahydroisoquinolin-6-yl)-2-chloro-4-(4,4-dimethylpiperidin-1-yl)-6-(((2-(methylsulfonyl)ethyl)amino)methyl)pyridin-3-yl)-2-(tert-butoxy)acetic Acid], with 110 nM; and `CCC(C)(C)O[C@H](C(=O)O)c1c(C)ncc(-c2ccc3c(c2)CCN(Cc2c(C)cccc2Cl)C3)c1N1CCC(C)(C)CC1` [Example 53, (2S)-2-(5-{2-[(2-Chloro-6-methylphenyl)methyl]-1,2,3,4-tetrahydroisoquinolin-6-yl}-4-(4,4-dimethylpiperidin-1-yl)-2-methylpyridin-3-yl)-2-[(2-methylbutan-2-yl)oxy]acetic Acid], with 6 nM; and `CCC(C)(C)O[C@H](C(=O)O)c1c(C)nc(C)c(-c2ccc3c(c2)CCN(Cc2ccccc2C)C3)c1N1CCC(C)(C)CC1` [Example 90, (S)-2-(4-(4,4-Dimethylpiperidin-1-yl)-2,6-dimethyl-5-(2-(2-methylbenzyl)-1,2,3,4-tetrahydroisoquinolin-6-yl)pyridin-3-yl)-2-(tert-pentyloxy)acetic Acid], with 4 nM. Then `CC1(C)CCN(c2c(-c3ccc4c(c3)CCN(c3ncnc5c3oc3ncccc35)C4)cnc(Cl)c2[C@H](OC(C)(C)C)C(=O)O)CC1` [Example 92, (S)-2-(tert-Butoxy)-2-(2-chloro-4-(4,4-dimethylpiperidin-1-yl)-5-(2-(pyrido[3′,2′:4,5]furo[3,2-d]pyrimidin-4-yl)-1,2,3,4-tetrahydroisoquinolin-6-yl)pyridin-3-yl)acetic Acid], with 0.6 nM; and `Cc1nc(C)c([C@H](OC(C)(C)C)C(=O)O)c(N2CCC(C)(C)CC2)c1-c1ccc2c(c1)CCN(c1ncnc(N3CCOCC3)c1C)C2` [Example 77, (S)-2-(tert-Butoxy)-2-(4-(4,4-dimethylpiperidin-1-yl)-2,6-dimethyl-5-(2-(5-methyl-6-morpholinopyrimidin-4-yl)-1,2,3,4-tetrahydroisoquinolin-6-yl)pyridin-3-yl)acetic Acid], with 0.6 nM. The figure for `Cc1cccc(Cl)c1CN1CCc2cc(-c3c(CO)nc(Cl)c([C@H](OC(C)(C)C)C(=O)O)c3N3CCC(C)(C)CC3)ccc2C1` [Example 97, (S)-2-(tert-Butoxy)-2-(2-chloro-5-(2-(2-chloro-6-methylbenzyl)-1,2,3,4-tetrahydroisoquinolin-6-yl)-4-(4,4-dimethylpiperidin-1-yl)-6-(hydroxymethyl)pyridin-3-yl)acetic Acid] is 2 nM. As for `Cc1nc(C)c([C@H](OC(C)(C)C)C(=O)O)c(N2CCC(C)(C)CC2)c1-c1ccc2c(c1)CCN(c1ncc(F)c(N3CCOCC3)n1)C2` [Example 38, (2S)-2-(tert-Butoxy)-2-[4-(4,4-dimethylpiperidin-1-yl)-5-{2-[5-fluoro-4-(morpholin-4-yl)pyrimidin-2-yl]-1,2,3,4-tetrahydroisoquinolin-6-yl}-2,6-dimethylpyridin-3-yl]acetic Acid], the EC50 is 3 nM. As for `CCC(C)(C)O[C@H](C(=O)O)c1c(C)nc(C)c(-c2ccc3c(c2)CCN(c2ncnc4c2oc2ccccc24)C3)c1N1CCC(C)(C)CC1` [Example 141, (S)-2-(5-(2-(Benzofuro[3,2-d]pyrimidin-4-yl)-1,2,3,4-tetrahydroisoquinolin-6-yl)-4-(4,4-dimethylpiperidin-1-yl)-2,6-dimethylpyridin-3-yl)-2-(tert-pentyloxy)acetic Acid], the EC50 amounted to 2 nM. With `CCOc1nc(N2CCOCC2)nc(N2CCc3cc(-c4c(C)nc(C)c([C@H](OC(C)(C)C)C(=O)O)c4N4CCC(C)(C)CC4)ccc3C2)n1` [Example 59, (S)-2-(tert-Butoxy)-2-(4-(4,4-dimethylpiperidin-1-yl)-5-(2-(4-ethoxy-6-morpholino-1,3,5-triazin-2-yl)-1,2,3,4-tetrahydroisoquinolin-6-yl)-2,6-dimethylpyridin-3-yl)acetic Acid], the EC50 came to 3 nM. Then `Cc1nc(N2CCOCC2)nc(N2CCc3cc(-c4c(C)nc(C)c([C@H](OC(C)(C)C)C(=O)O)c4N4CCC(C)(C)CC4)ccc3C2)n1` [Example 56, (S)-2-(tert-Butoxy)-2-(4-(4,4-dimethylpiperidin-1-yl)-2,6-dimethyl-5-(2-(4-methyl-6-morpholino-1,3,5-triazin-2-yl)-1,2,3,4-tetrahydroisoquinolin-6-yl)pyridin-3-yl)acetic Acid], with 1 nM; and `Cc1nc(CN2CCC(C)(C)CC2)c(-c2ccc3c(c2)CCN(c2ncnc4c2oc2ccccc24)C3)c(N2CCC(C)(C)CC2)c1[C@H](OC(C)(C)C)C(=O)O` [Example 161, (S)-2-(5-(2-(Benzofuro[3,2-d]pyrimidin-4-yl)-1,2,3,4-tetrahydroisoquinolin-6-yl)-4-(4,4-dimethylpiperidin-1-yl)-6-((4,4-dimethylpiperidin-1-yl)methyl)-2-methylpyridin-3-yl)-2-(tert-butoxy)acetic Acid], with 1 nM; and `Cc1nc(C)c([C@H](OC(C)(C)C)C(=O)O)c(N2CCC(C)(C)CC2)c1-c1ccc2c(c1)CCN(c1ccnc(N3CCC(CCO)CC3)n1)C2` [Example 144, (S)-2-(tert-Butoxy)-2-(4-(4,4-dimethylpiperidin-1-yl)-5-(2-(2-(4-(2-hydroxyethyl)piperidin-1-yl)pyrimidin-4-yl)-1,2,3,4-tetrahydroisoquinolin-6-yl)-2,6-dimethylpyridin-3-yl)acetic Acid], with 3 nM.

In the case of `Cc1cc(N2CCOCC2)nc(N2CCc3cc(-c4c(C)nc(C)c([C@H](OC(C)(C)C)C(=O)O)c4N4CCC(C)(C)CC4)ccc3C2)n1` [Example 37, (2S)-2-(tert-Butoxy)-2-[4-(4,4-dimethylpiperidin-1-yl)-2,6-dimethyl-5-{2-[4-methyl-6-(morpholin-4-yl)pyrimidin-2-yl]-1,2,3,4-tetrahydroisoquinolin-6-yl}pyridin-3-yl]acetic Acid], the EC50 was 1 nM. On to `Cc1nc(C)c([C@H](OC(C)(C)C)C(=O)O)c(N2CCC(C)(C)CC2)c1-c1ccc2c(c1)CCN(c1cccc(F)n1)C2` [Example 94, (S)-2-(tert-Butoxy)-2-(4-(4,4-dimethylpiperidin-1-yl)-5-(2-(6-fluoropyridin-2-yl)-1,2,3,4-tetrahydroisoquinolin-6-yl)-2,6-dimethylpyridin-3-yl)acetic Acid], for which the EC50 was 4 nM.

With `Cc1nc(C)c([C@H](OC(C)(C)C)C(=O)O)c(N2CCC(C)(C)CC2)c1-c1ccc2c(c1)CCN(c1cc(N3CCC(C)CC3)ncn1)C2` [Example 138, (S)-2-(tert-Butoxy)-2-(4-(4,4-dimethylpiperidin-1-yl)-2,6-dimethyl-5-(2-(6-(4-methylpiperidin-1-yl)pyrimidin-4-yl)-1,2,3,4-tetrahydroisoquinolin-6-yl)pyridin-3-yl)acetic Acid], the EC50 worked out at 2 nM. Then `Cc1nc(C)c([C@H](OC(C)(C)C)C(=O)O)c(N2CCC(C)(C)CC2)c1-c1ccc2c(c1)CCN(c1ccnc(N3CCCCC3)n1)C2` [Example 22, (2S)-2-(tert-Butoxy)-2-[4-(4,4-dimethylpiperidin-1-yl)-2,6-dimethyl-5-{2-[2-(piperidin-1-yl)pyrimidin-4-yl]-1,2,3,4-tetrahydroisoquinolin-6-yl}pyridin-3-yl]acetic Acid], with 3 nM; and `Cc1nc(C)c([C@H](OC(C)(C)C)C(=O)O)c(N2CCC(C)(C)CC2)c1-c1ccc2c(c1)CCN(c1nccc(N3C4COCC3COC4)n1)C2` [Example 33, (2S)-2-(tert-Butoxy)-2-[4-(4,4-dimethylpiperidin-1-yl)-5-[2-(4-{3,7-dioxa-9-azabicyclo[3.3.1]nonan-9-yl}pyrimidin-2-yl)-1,2,3,4-tetrahydroisoquinolin-6-yl]-2,6-dimethylpyridin-3-yl]acetic Acid], with 5 nM.

In the case of `Cc1cccc(Cl)c1CN1CCc2cc(-c3c(CO)ncc([C@H](OC(C)(C)C)C(=O)O)c3N3CCC(C)(C)CC3)ccc2C1` [Example 117, (S)-2-(tert-Butoxy)-2-(5-(2-(2-chloro-6-methylbenzyl)-1,2,3,4-tetrahydroisoquinolin-6-yl)-4-(4,4-dimethylpiperidin-1-yl)-6-(hydroxymethyl)pyridin-3-yl)acetic Acid], the EC50 came out at 1 nM.

Turning to `Cc1nc(C)c([C@H](OC(C)(C)C)C(=O)O)c(N2CCC(C)(C)CC2)c1-c1ccc2c(c1)CCN(c1cc(N3CCC(C(C)(C)O)CC3)ncc1F)C2` [Example 104, (S)-2-(tert-Butoxy)-2-(4-(4,4-dimethylpiperidin-1-yl)-5-(2-(5-fluoro-2-(4-(2-hydroxypropan-2-yl)piperidin-1-yl)pyridin-4-yl)-1,2,3,4-tetrahydroisoquinolin-6-yl)-2,6-dimethylpyridin-3-yl)acetic Acid], the EC50 was 10 nM.
